In ChEMBL document CHEMBL1201862, “PubChem BioAssay data set” (2004):
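Exposure lasted 48 hours, with cells grown in 96-well plates and compounds tested at five concentrations. The concentration for 50% growth inhibition is given as GI50.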 Calls of active or inactive are those of the source. Cut-off read from the data, not from the text of the source: active = GI50 up to about 1.1 µM and inactive = higher.

Key:
Experiment in all cases: DTP human tumour cell line panel, 48 h
ACHN = test system: ACHN
CCRF-CEM = test system: CCRF-CEM
COLO 205 = test system: COLO 205
HL-60 = test system: HL-60
HT-29 = test system: HT-29
IGROV-1 = test system: IGROV-1
K562 = test system: K562
M14 = test system: M14
MOLT-4 = test system: MOLT-4
NCI-H226 = test system: NCI-H226
NCI-H522 = test system: NCI-H522
OVCAR-3 = test system: OVCAR-3
OVCAR-4 = test system: OVCAR-4
SF-295 = test system: SF-295
SK-MEL-2 = test system: SK-MEL-2
SR = test system: SR
A498 = test system: A498
HCC 2998 = test system: HCC 2998

Measured: GI50

Cc1cc(C)c2c(c1)CN1CN2Cc2cc(C)cc(C)c21
inactive: ACHN 18 µM | CCRF-CEM 24.6 µM | COLO 205 22.1 µM | HL-60 26.4 µM | HT-29 16.3 µM | IGROV-1 23.4 µM | K562 27.7 µM | M14 18.2 µM | MOLT-4 22.4 µM | NCI-H226 26 µM | NCI-H522 29 µM | OVCAR-3 14.8 µM | OVCAR-4 18.3 µM | SF-295 18.7 µM | SK-MEL-2 > 10 µM | SR 18.8 µM

CC(C)N(C(=O)C12C3C4C1C1C2C3C41C(=O)N(C(C)C)C(C)C)C(C)C (centres undefined)
inactive: A498 > 50 µM | ACHN > 50 µM | CCRF-CEM > 50 µM | COLO 205 > 50 µM | HCC 2998 > 50 µM | HL-60 > 50 µM | HT-29 > 50 µM | IGROV-1 > 50 µM | K562 > 50 µM | M14 > 50 µM | MOLT-4 > 50 µM | NCI-H226 > 50 µM | NCI-H522 > 50 µM | OVCAR-3 > 50 µM | OVCAR-4 > 50 µM | SF-295 > 50 µM | SK-MEL-2 > 50 µM

CC(=O)N1CC2Nc3ccccc3C2CC1CO (centres undefined)
inactive: A498 > 100 µM | ACHN > 100 µM | CCRF-CEM > 100 µM | COLO 205 > 100 µM | HCC 2998 > 100 µM | HL-60 > 100 µM | HT-29 > 100 µM | IGROV-1 > 100 µM | K562 > 100 µM | M14 > 100 µM | MOLT-4 > 100 µM | NCI-H226 > 100 µM | NCI-H522 > 100 µM | OVCAR-3 > 100 µM | OVCAR-4 > 100 µM | SF-295 > 100 µM | SK-MEL-2 > 100 µM

NC(=O)c1cn(Cc2ccccc2)c(=O)n1Cc1ccccc1
inactive: A498 > 100 µM | ACHN > 100 µM | CCRF-CEM > 100 µM | COLO 205 > 100 µM | HCC 2998 > 100 µM | HL-60 > 100 µM | HT-29 > 100 µM | IGROV-1 > 100 µM | K562 > 100 µM | M14 > 100 µM | MOLT-4 > 100 µM | NCI-H226 > 100 µM | NCI-H522 > 100 µM | OVCAR-3 > 100 µM | OVCAR-4 > 100 µM | SF-295 > 100 µM | SK-MEL-2 > 100 µM

CC1(C)Cc2c(oc3ncnc(N)c23)CS1
inactive: ACHN > 100 µM | CCRF-CEM > 100 µM | COLO 205 > 100 µM | HCC 2998 > 100 µM | HT-29 > 100 µM | IGROV-1 > 100 µM | K562 > 100 µM | M14 > 100 µM | MOLT-4 > 100 µM | NCI-H226 89.7 µM | NCI-H522 > 100 µM | OVCAR-3 > 100 µM | OVCAR-4 > 100 µM | SF-295 > 100 µM | SK-MEL-2 > 100 µM | SR > 100 µM

O=C(O)c1ccc(Nc2nc3nn(Cc4ccccc4)cc3c(=O)s2)cc1
inactive: ACHN > 100 µM | CCRF-CEM > 100 µM | COLO 205 > 100 µM | HCC 2998 > 100 µM | HL-60 > 100 µM | IGROV-1 > 100 µM | K562 > 100 µM | M14 > 100 µM | MOLT-4 > 100 µM | NCI-H522 > 100 µM | OVCAR-3 > 100 µM | SF-295 > 100 µM | SK-MEL-2 > 100 µM | SR > 100 µM

OCC(O)C(OC1OC(CO)C(O)C(O)C1O)c1nn(-c2ccc(Cl)cc2)c2nc3cc(Cl)ccc3nc12 (centres undefined)
inactive: A498 > 100 µM | ACHN > 100 µM | CCRF-CEM > 100 µM | HCC 2998 > 100 µM | HT-29 > 100 µM | K562 > 100 µM | M14 > 100 µM | MOLT-4 > 100 µM | NCI-H522 > 100 µM | OVCAR-3 > 100 µM | OVCAR-4 > 100 µM | SF-295 > 100 µM | SR > 100 µM

O=C(CCC(=O)Nc1cccc(Cl)c1)CC(=O)c1ccc(F)cc1
inactive: ACHN > 100 µM | COLO 205 > 100 µM | HCC 2998 > 100 µM | HL-60 > 100 µM | HT-29 > 100 µM | K562 > 100 µM | M14 > 100 µM | MOLT-4 > 100 µM | NCI-H226 > 100 µM | NCI-H522 > 100 µM | OVCAR-3 > 100 µM | OVCAR-4 > 100 µM | SF-295 23.2 µM | SK-MEL-2 > 100 µM | SR > 100 µM

CC(=O)O[C@]12CCCCCC1C1(O)C(O)CCCCC12 (some centres undefined)
inactive: ACHN > 100 µM | CCRF-CEM > 100 µM | COLO 205 > 100 µM | HL-60 > 100 µM | HT-29 > 100 µM | K562 > 100 µM | M14 > 100 µM | MOLT-4 > 100 µM | NCI-H226 > 100 µM | NCI-H522 > 100 µM | OVCAR-4 > 100 µM | SF-295 > 100 µM | SK-MEL-2 > 100 µM | SR > 100 µM
